In patent US11286246B2, “Pro-drugs and related methods” (Aposense LTD., priority 2015, dated 2022):

Legend:
Type in all cases: physicochemical
[1] = Reduction-induced cleavage with 100 equivalents of DTT, HPLC/MS; conditions: 100 equiv DTT, DMSO/aqueous buffer pH 7.0, 37° C., argon
Method: The experiment comprised incubation of Compound B with 100 equivalents of the reducing agent DTT (0.1 mL of 2 M solution), 1.0 mL DMSO in aqueous buffer (pH=7.0), at 37° C. under argon atmosphere. Three sets of samples were analyzed by HPLC/MS: at 1 hour, 6 hours, and at 24 hours. […] This structure was thereafter maintained throughout the experiment.
Importantly however, HPLC/MS also indicated the formation of Compound B3, indicating cleavage of Compound B2, at the carbamate bond, with release of the phenolic moiety, Compound B3:
There was evidence for such cleavage, with release of Compound B3, already at one hour of incubation, where 30% cleavage was detected. This increased to 90% of cleaved product at 6 hours, and full cleavage by 24 hours.

[2] = Stability of Compound 5 in DMSO solution (non-reductive environment), HPLC-MS; conditions: room temperature, 24 hours, no reducing agent
Method: (§1) A DMSO solution of Compound 5 was incubated at room temperature for 24 hours. […] The Compound was then incubated at room temperature with one equivalent of the reducing agent tris (2-carboxyethyl) phosphine (TCEP). […] Intact Compound 5; (ii). a product corresponding to Compound 5 with two reduced thiol groups (Product 1); (iii). a product corresponding to cleaved Fragment A; and (iv). a product corresponding to cleaved Fragment B.
(§2) However, in reductive conditions, conversion of the disulfide into free thiol groups takes place. Importantly, this step is evidently followed by an intramolecular reaction, with molecular cleavage at the carbamate moiety, conceivably related to nucleophilic attack on the respective carbonyl by a thiol or a thiolate group, conveniently located at the sixth atom position. Therefore, the Compound manifests selective reduction-dependent cleavage. The site of the nucleophilic attack is described in the following Scheme 4: […]

[3] = Reduction-induced cleavage with one equivalent of TCEP, HPLC-MS; conditions: room temperature, 18 hours
Method: as §1, §2

[4] = Reduction-induced cleavage with excess dithiothreitol (15 equiv), HPLC/MS; conditions: 15 equiv DTT, DMSO/phosphate buffer pH 7, 37° C., argon
Method: Dithiothreitol (DTT) is a reducing agent; once oxidized, it forms a stable six-membered ring, with an internal disulfide bond. Disulfide compound A was treated with excess dithiothreitol (15 equiv, aq. 0.5M, pH adjusted to 7 with phosphate buffer solution) in DMSO and phosphate buffer solution (pH 7) at 37° C. under an argon atmosphere. Two sets of samples were analyzed by HPLC/MS: at 6 and at 24 hours.
As expected, the peak at 24 hours was of larger amplitude (70% vs. 30%).

Question: Which results are given for `C[C@]12CC[C@@H]3c4cc(F)c(OC(=O)N(CCCO)C5CCSSC5)cc4CC[C@H]3[C@@H]1CC[C@@H]2OCCCOC(C(F)(F)F)(C(F)(F)F)C(F)(F)F` (stereo partly drawn) [Compound B]?
Answer: cleavage with release of Compound B3 ([1]; 6 hours): 90%; cleavage with release of Compound B3 ([1]; 24 hours): full cleavage; cleavage with release of Compound B3 ([1]; one hour): 30%; reduction of the disulphide bond (conversion of Compound B to Compound B2) ([1]; one hour): full conversion

Question: For `C[C@]12CC[C@@H]3c4ccc(OC(=O)N(CCCCCCO)C5CCSSC5)cc4CC[C@H]3[C@@H]1CC[C@@H]2OCCCOC(C(F)(F)F)(C(F)(F)F)C(F)(F)F` (stereo partly drawn) [Compound 5], which “stability of the DMSO solution by HPLC-MS” value [2] is on record?
Answer: Its value is “stable and intact”.

Question: And the “HPLC-MS products after incubation with reducing agent (intact compound, reduced Product 1, cleaved Fragment A, cleaved Fragment B)” value [3]?
Answer: The value was “four distinct peaks”.

Question: For `CCCCCCN(C(=O)Oc1ccccc1)[C@H]1CCSSC1` [Compound A], which “cleavage (peak amplitude of cleavage product A3)” value ([4]; 6 hours) is on record?
Answer: The value was 30%.

Question: What about the “reduction of the disulphide bond (A2)” value ([4]; 6 hours) of the same molecule?
Answer: Its value is “clearly visible”.

Question: And the “cleavage (peak amplitude of cleavage product A3)” value ([4]; 24 hours)?
Answer: Its value is 70%.
